Test results: PubChem BioAssay AID434951 (Broad Institute, 2010)
Active and inactive are the calls of the source.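 How the source made its calls: active means a fitted half-maximal concentration EC50 for the rise in nuclear signal no higher than ten times the top dose tested; inconclusive means flat fit with activity between 30% and 70%, or unusable fit; inactive means EC50 beyond ten times the top dose.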

Target: Hypoxia-inducible factor 1-alpha (Homo sapiens) (UniProt Q16665)
Assay: HIF pathway activation, GFP-HIF1alpha translocation – imaging, fluorescence, U2OS GFP-HIF1alpha, confirmation (AID 434951)
Details: U2OS GFP-HIF1alpha nuclear intensity, high-content imaging

Sequence of Hypoxia-inducible factor 1-alpha (Homo sapiens) (Q16665 whole entry, looked up): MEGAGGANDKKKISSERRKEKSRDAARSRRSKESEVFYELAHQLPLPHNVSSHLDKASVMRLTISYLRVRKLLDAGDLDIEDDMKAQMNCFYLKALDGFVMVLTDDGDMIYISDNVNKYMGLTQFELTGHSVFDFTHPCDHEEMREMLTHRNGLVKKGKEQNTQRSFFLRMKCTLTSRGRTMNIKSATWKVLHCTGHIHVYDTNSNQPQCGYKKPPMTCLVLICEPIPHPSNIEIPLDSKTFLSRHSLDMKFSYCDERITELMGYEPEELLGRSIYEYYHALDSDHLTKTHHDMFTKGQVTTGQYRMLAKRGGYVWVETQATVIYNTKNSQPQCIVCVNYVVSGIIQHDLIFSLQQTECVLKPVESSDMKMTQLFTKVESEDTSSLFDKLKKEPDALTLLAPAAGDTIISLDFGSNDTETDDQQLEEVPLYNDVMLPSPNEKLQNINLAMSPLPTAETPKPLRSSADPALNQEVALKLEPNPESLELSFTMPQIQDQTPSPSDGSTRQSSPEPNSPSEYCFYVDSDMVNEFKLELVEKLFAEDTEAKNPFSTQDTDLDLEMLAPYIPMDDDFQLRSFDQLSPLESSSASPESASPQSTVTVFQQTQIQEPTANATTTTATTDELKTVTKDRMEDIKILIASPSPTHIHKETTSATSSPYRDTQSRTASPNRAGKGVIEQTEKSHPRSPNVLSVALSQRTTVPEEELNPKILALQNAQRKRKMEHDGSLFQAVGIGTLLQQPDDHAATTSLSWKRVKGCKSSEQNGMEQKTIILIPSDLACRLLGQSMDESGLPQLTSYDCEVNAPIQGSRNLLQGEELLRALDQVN

SMILES | EC50
OCc1ccc(N=Nc2ccccc2)cc1 | > 35 µM (inactive)
Oc1ccc2ccccc2c1N=Nc1ccccn1 | 9 µM
NC(=S)NNC(=O)c1cc(C(F)(F)F)cc(C(F)(F)F)c1 | > 35 µM (inactive)
Cc1cccc(OCC(=O)NCC(=O)N/N=C/c2cccnc2)c1 | > 35 µM (inactive)
O=C1CCCC2=C1C(Cc1ccccc1)C1=C(CCCC1=O)O2 | > 35 µM (inactive)
O=[N+]([O-])c1ccc(OCCCCN2CCCCC2)cc1 | > 35 µM (inactive)
CC(C)[C@H](NC(=O)c1ccco1)C(=O)OCc1cc(=O)n2c(n1)sc1ccccc12 | > 35 µM (inactive)
Cc1cc(C)cc(N(CC(=O)Nc2ccccc2C(=O)N2CCOCC2)S(C)(=O)=O)c1 | > 35 µM (inactive)
CC[C@@]1(O)C(=O)OCc2c1cc1n(c2=O)Cc2cc3c(N)cccc3nc2-1 | > 35 µM (inactive)
CCN1CCN(c2ccc([N+](=O)[O-])cc2C=C2C(=O)NC(=O)NC2=O)CC1 | > 35 µM (inactive)
COc1ccc(Nc2nc(N/N=C/c3ccc(N(C)C)cc3)nc(C)c2[N+](=O)[O-])cc1 | > 35 µM (inactive)
CC(C)Cn1c(/C=N/Nc2nc3ccccc3[nH]2)nc2ccccc21 | 9.05 µM
CCCCc1ccc(NC(=O)C2CCN(S(C)(=O)=O)CC2)cc1 | > 35 µM (inactive)
CCOc1ccccc1CN1CCN(S(C)(=O)=O)CC1 | > 35 µM (inactive)
O=C(N/N=C/C(Br)=C\c1ccccc1)c1n[nH]c2c1CCC2 | 7.85 µM
CN(C)CCCN(C(=O)CCS(=O)(=O)c1ccccc1)c1nc2cc3c(cc2s1)OCO3 | > 35 µM (inactive)
O=C(Nc1ccc2ccccc2c1)c1ccccc1O | > 35 µM (inactive)
C=CCOc1ccc(/C=C2\SC(=Nc3cccnc3)NC2=O)cc1 | > 35 µM (inactive)
O=C(NCCCn1ccnc1)c1cc(-c2cccs2)on1 | 2.68 µM
O=C(CSc1nnc(-c2ccncc2)o1)N1CCCCCC1 | > 35 µM (inactive)
Cc1cc(C)n(-c2nc3ccccc3c(=O)n2OCC#N)n1 | 11.4 µM
O=C(NCC1CCCO1)c1cc(-c2ccccc2F)no1 (stereo not given) | 21.7 µM
Cc1ccc(CN2[C@@H](CC(C)C)COCCS2(=O)=O)cc1 | > 35 µM (inactive)
Cc1nnsc1C(=O)N/N=C/c1ccc2ccccc2c1O | 3.13 µM
COc1ccc(S(=O)(=O)N2CCC(c3cc(-c4cccc5ccccc45)n[nH]3)CC2)cc1 | > 35 µM (inactive)
CCn1nc(NS(=O)(=O)c2ccc(NC(C)=O)cc2)c2cc3cccc(C)c3nc21 | > 35 µM (inactive)
Nc1ccc(C(=O)Nc2ccc3nc(-c4ccncc4)[nH]c3c2)cc1 | > 35 µM (inactive)

SMILES | EC50
COC(=O)CC1C(=O)NCCN1C(=O)CSc1nnc(Nc2ccc(OC)cc2)s1 (stereo not given) | > 35 µM (inactive)
Cc1ccc2nc(SCC(=O)N3CCCCC3)nc(=O)n2c1 | > 35 µM (inactive)
CN(C1CCCC1)C1CCN(C(=S)Nc2cc(F)cc(F)c2)CC1 | > 35 µM (inactive)
COc1ccc(/C=N/NC(=O)c2cccnc2)cc1CN1CCN(c2ccc(F)cc2)CC1 | > 35 µM (inactive)
O=C(N/N=C/c1cc(Br)cc(Cl)c1O)c1ccc2c(c1)OCO2 | > 35 µM (inactive)
COc1ccc(C(NC(C)=O)c2ccc3cccnc3c2O)c(OC)c1 (stereo not given) | 10.9 µM
CSc1nc(C)cc(C)c1C#N | > 35 µM (inactive)
Cc1ccc(-c2cc(N)n(-c3ccc(F)cc3)n2)cc1 | > 35 µM (inactive)
Cc1nc2ccccc2c(=O)n1/N=C/c1ccc2ccccc2c1O | 22.2 µM
Cn1ncc(Br)c1NC(=O)CSc1ccc(Cl)cc1 | > 35 µM (inactive)
O=C(N/N=C/c1cc(Br)ccc1O)C(=O)Nc1ccccc1OC(F)(F)C(F)F | 35.2 µM
O=C(Cc1ccc(S(=O)(=O)N2CCOCC2)s1)Nc1ccc(S(=O)(=O)N2CCCCC2)cc1 | > 35 µM (inactive)
COc1ccc(/C=C(\C#N)c2nc3ccccc3[nH]2)cc1O | > 35 µM (inactive)
CC(C)c1nnc(NC(=O)CCC(=O)NC2CC2)s1 | > 35 µM (inactive)
Cc1ccc(C(=O)NC2CC3CCCC(C2)N3Cc2ccccc2)cc1 (stereo not given) | > 35 µM (inactive)
Nc1cc2c3c(cccc3c1)C(=O)N(CCN1CCCC1)C2=O | 16.4 µM
O=C(N/N=C/c1ccc(F)cc1)c1cc(-c2ccc3c(c2)OCO3)n[nH]1 | 16.2 µM
CN(CC(=O)Nc1ccccc1Oc1ccccc1)Cc1ccccc1F | > 35 µM (inactive)
COc1ccc(NC(=O)C2CCN(S(=O)(=O)c3ccc4c(c3)CC(C)N4C(C)=O)CC2)cc1OC (stereo not given) | > 35 µM (inactive)
Cc1nn(C)cc1S(=O)(=O)NCc1ccc2c(c1)OCO2 | > 35 µM (inactive)
CCC1Oc2ccccc2N(CC(=O)Nc2ccccc2OC)C1=O (stereo not given) | > 35 µM (inactive)
COc1ccc(CCNC(=O)c2cc(-c3ccco3)on2)cc1OC | 10.8 µM
Cc1cc(OCC(=O)Nc2ccc3c(c2)OCCO3)cc(C)c1Cl | > 35 µM (inactive)
O=C1N/C(=C/c2cccs2)C(=O)N1Cc1ccc(Br)cc1 | > 35 µM (inactive)
CCOc1ccc(CCNC(=O)COC(=O)Cn2nc(C)c([N+](=O)[O-])c2C)cc1OCC | > 35 µM (inactive)
COc1ccc(/C(C)=N/NC(=O)c2cccc(S(=O)(=O)N3CCCC3)c2)c(O)c1 | 5.8 µM
Cc1ccc(-c2nnc(Sc3nc4ccccc4o3)c3ccccc23)cc1 | 16.9 µM

SMILES | EC50
Cc1cc(NC(=O)c2ccccc2)n(-c2nc3ccccc3[nH]2)n1 | 27 µM
CC(C)c1ccc(NC(=O)CCc2ccccc2)cc1 | > 35 µM (inactive)
Nc1ccc(C(=O)N/N=C\c2cc(N=Nc3cccc4ccccc34)ccc2O)cc1 | 35.8 µM
O=C(c1cc(Br)ccc1Cl)N1CCC2(CC1)OCCO2 | > 35 µM (inactive)
CCOC(=O)C1CCN(C(=O)C2CCCN(c3ncnc4c3nc3n4CCCCC3)C2)CC1 (stereo not given) | > 35 µM (inactive)
O=C(NCCc1ccccc1)C1CCN(S(=O)(=O)c2ccc(-n3cnnn3)cc2)CC1 | > 35 µM (inactive)
CCc1ccc(NC(=O)CSc2ccc(-c3ccccn3)nn2)cc1 | 10.5 µM
COc1ccccc1NC(=O)c1nc(S(=O)(=O)Cc2ccccc2)ncc1Cl | > 35 µM (inactive)
CCN(CC)c1ccc(NC(=O)CSc2nc3nc(C)cc(C)c3c(=O)[nH]2)cc1 | > 35 µM (inactive)
N#CC(=C=[N-])c1nc2ccccc2nc1-[n+]1cccc(NC(=O)c2ccc(F)cc2)c1 | > 35 µM (inactive)
Nc1nc(-c2ccccn2)nc(N)c1Cc1ccc(Cl)cc1Cl | 6.12 µM
O=C(CCCCCCC(=O)Nc1ccccc1)NO | 5.94 µM
C=C(C)Cn1c(CCNC(=O)C(C)C)nc2ccccc21 | > 35 µM (inactive)
COc1ccc(-c2cn3nc(SCC(=O)NCC4CCCO4)ccc3n2)cc1 (stereo not given) | > 35 µM (inactive)
C=CCNc1nc(-c2ccccn2)nnc1-c1ccccc1 | 7.41 µM
COc1ccccc1NC(c1cccnc1)c1ccc2cccnc2c1O (stereo not given) | 25.9 µM
CC(NC(=O)C12CC3CC(CC(O)(C3)C1)C2)c1ccc(Cl)cc1Cl (stereo not given) | > 35 µM (inactive)
COc1ccc(Cl)c(OC)c1C(=O)NC(=O)Nc1c(F)cc(F)cc1F | > 35 µM (inactive)
CCN(CC)S(=O)(=O)c1ccc(N2CCOCC2)c(NC(=O)c2cccc3ccccc23)c1 | > 35 µM (inactive)
COCc1c(C(=O)N/N=C(\C)c2ccc(Cl)s2)nnn1-c1nonc1N | > 35 µM (inactive)
COCCNC(=O)c1cc(-c2cccs2)on1 | 12 µM
CCC(=O)N1CCN(c2nc3ccc(Br)cc3s2)CC1 | > 35 µM (inactive)
Cc1cc(S(=O)(=O)ON2C(=O)c3ccccc3C2=O)ccc1F | 6.21 µM
O=C(Nc1nc2c(F)cc(F)cc2s1)c1ccccn1 | 5.5 µM
CCN(CC)CCOC(=O)C(Cc1ccco1)Cc1cccc2ccccc12 (stereo not given) | > 35 µM (inactive)
Cc1cc(C)nc(N/N=C/c2cc(Br)ccc2O)n1 | 8.31 µM
O=[N+]([O-])c1ccc(N/N=C/c2ccccc2O)cc1 | > 35 µM (inactive)

SMILES | EC50
Oc1ccc(CCNc2c3ccccc3nc3ccccc23)cc1O | > 35 µM (inactive)
COc1ccc2oc(=O)c(C(=O)NC3CCCCCC3)cc2c1 | > 35 µM (inactive)
CN(C)c1ccc(CNC(=O)CCS(=O)(=O)c2ccc3c(c2)oc(=O)n3C)cc1 | > 35 µM (inactive)
Cc1nnc(SCc2cccc(Cl)c2)n(N)c1=O | > 35 µM (inactive)
COc1cc(SC)ccc1C(=O)Nc1ccc(C)cc1C | > 35 µM (inactive)
O=[N+]([O-])c1ccc(O)c(/C=N/Nc2ccccn2)c1 | 6.39 µM
CCOC(=O)c1[nH]cnc1N=Nc1c(O)ccc2ccccc12 | 2.2 µM
Cc1cc(NC(=O)CCCS(=O)(=O)c2nc(-c3cccs3)cc(C(F)(F)F)n2)no1 | > 35 µM (inactive)
Cc1ccc(-c2nc3ccccc3nc2NN)cc1 | > 35 µM (inactive)
COc1ccc(CC(NC(C)=O)C(=O)NC2CCN(C(=O)c3cccc(Cl)c3)CC2)cc1OC (stereo not given) | > 35 µM (inactive)
Cc1cc(NC(=O)C2CC(=O)N(c3cccc(C)c3C)C2)no1 (stereo not given) | 33.3 µM
CCC(Cc1ccccc1)n1c(=S)[nH]c2ccccc2c1=O (stereo not given) | > 35 µM (inactive)
CCn1c(SCC(=O)Nc2nncs2)nnc1-c1ccco1 | > 35 µM (inactive)
Cc1cc(C)c(NS(=O)(=O)c2ccc3c(c2)NC(=O)CCS3)c(C)c1 | > 35 µM (inactive)
Oc1ccc(Br)cc1/C=N/Nc1ccccn1 | 7.01 µM
COc1ccc(C(=O)NCCCOC(=O)c2ccc(OC)cc2)cc1 | > 35 µM (inactive)
O=C(CN1CCC(C(=O)c2ccc(Cl)cc2)CC1)Nc1ccc2c(c1)OCCO2 | > 35 µM (inactive)
COc1ccc(C2NN=C(c3ccc(C)cc3)S2)cc1 (stereo not given) | > 35 µM (inactive)
CS(=O)(=O)c1ccc2nc(NC(=O)C3CC(=O)N(c4ccc(F)cc4)C3)sc2c1 (stereo not given) | > 35 µM (inactive)
CCN(CC)S(=O)(=O)c1ccc(N/N=C(\C)c2ccc(OC)cc2O)nc1 | 7.86 µM
Cc1ccc2nc(SCC(=O)c3ccccc3)nc(=O)n2c1 | > 35 µM (inactive)
Oc1c(C=C2N=c3ccccc3=N2)sc(=S)n1-c1ccccc1 | > 35 µM (inactive)
CC(OC(=O)c1ncc(Cl)c(Cl)c1Cl)C(=O)NC1(C#N)CCCCC1 (stereo not given) | 17.4 µM
COc1cccc(CNC(=O)CCCn2c(=S)[nH]c3cc4c(cc3c2=O)OCO4)c1 | > 35 µM (inactive)
